# Laboratory results taken from patent publication EP4817428A1, “SWEETNESS ENHANCER CONTAINING ERGOTHIONEINE AS ACTIVE INGREDIENT, AND FOOD OR BEVERAGE PRODUCT CONTAINING SAME” (Kikkoman Corporation, priority 2023, dated 2025).
# Like-named read-outs stand apart in the source and are kept apart here.
# Legend:
# [1] = assay type: in vivo; conditions: amakuchi soy sauce
# Procedure: (§1) Evaluation results of sweetness of test product compared with control • ∘: Sweetness was enhanced compared to the control. • ◇: Sweetness was similar to that of the control.
# (§2) A drinking test by a panel of three experts was conducted on the soy sauce to which ERG was added at each concentration (the concentration was not disclosed to the panel), using a soy sauce to which no ergothioneine was added (ERG0) as a control, and the sweetness was sensorially evaluated by a paired comparison test.
# The same test as in (1) described above was conducted by adding ERG to a commercially available amakuchi soy sauce (Golden Murasaki, Fundokin Shoyu).
# [2] = assay type: in vivo
# Procedure: Samples were prepared by adding ergothioneine to 1% to 50% sucrose solutions to final concentrations of 0 ppm, 0.05 ppm, 0.1 ppm, 0.25 ppm, and 0.5 ppm (ERG0 to 0.5 in Table 1 below; hereinafter, "ERGX" means a sample to which X ppm of ERG is added).
# A drinking test by an expert panel of four, different from those in Tests 1 and 2, was conducted on 1% to 50% sucrose samples to which ERG was added at each concentration (the concentration was not disclosed to the panel), using a 1% to 50% sucrose sample to which no ergothioneine was added as a control, and sweetness was sensorially evaluated. After tasting each sample and before tasting the next sample, the mouth was completely rinsed with water at room temperature. Pairs combining the control 1% to 50% sucrose sample and the 1% to 50% sucrose sample containing ergothioneine at each concentration were presented to the expert panel, and the panel evaluated which sample of the presented pair was perceived to be sweeter by a paired comparison test.
# as §1
# [3] = Test 9 (4): paired comparison test of sweetness, 50% oligosaccharide sample; assay type: in vivo; conditions: 50% oligosaccharide samples
# Procedure: (§3) In the following Test 9, sensory evaluation was performed by a panel of three experts in the same paired comparison test as in Tests 3, 5, and 7.
# Samples were prepared by adding ERG to a 50% oligosaccharide sample of an oligosaccharide (Fuji Oligo #450, Nihon Shokuhin Kako Co., Ltd.) to the ERG concentrations shown in Table 15 (ERG0 to 10). Pairs combining a control 50% oligosaccharide sample and a 50% oligosaccharide sample containing ERG at each concentration were presented, and the panel evaluated which sample of the presented pair was perceived to be sweeter by a paired comparison test.
# [4] = assay type: in vivo; remark: listed apart in the source
# Procedure: as §1
# Samples (ERG0 to 10) were prepared by adding ergothioneine to 20% fructose samples to final concentrations of 0.5 ppm, 1 ppm, 3 ppm, 5 ppm, and 10 ppm.
# A drinking test by a panel of four experts was conducted on 20% fructose samples to which ERG was added at each concentration (the concentration was not disclosed to the panel), using a 20% fructose sample to which no ergothioneine was added as a control, and sweetness was sensorially evaluated.
# In addition, samples (ERG0.5 to 900) were prepared by adding ergothioneine to 20% fructose samples to final concentrations of 0.5 ppm, 5 ppm, 10 ppm, 20 ppm, 40 ppm, 60 ppm, 80 ppm, 100 ppm, 200 ppm, 400 ppm, and 900 ppm.
# Pairs combining 20% fructose samples containing different concentrations of ERG (for example, a pair of ERG 20 ppm and 40 ppm) were presented to the expert panel, and the panel evaluated which sample of the presented pair was perceived to be sweeter by a paired comparison test.
# [5] = Test 7: sensory evaluation, selection of fructose sample of equivalent sweetness; assay type: in vivo; conditions: 5% fructose sample containing 60 ppm ERG
# Procedure: Fructose was added to pure water to prepare fructose samples having six concentrations of 0%, 4.5%, 5%, 5.25%, 5.5%, and 6%; and as a seventh sample, a sample in which ergothioneine was added to 5% fructose to a final concentration of 60 ppm was prepared.
# Sweetness was sensorially evaluated by the same expert panel of five trained sweetness-sensitive subjects as in Test 1. The panel of five experts was asked to select a sample having an equivalent sweetness from among the 1st to 6th fructose samples (the concentration was not disclosed to the panel) regarding the sweetness of the 7th 5% fructose sample containing 60 ppm ERG.
# [6] = Test 9 (5): paired comparison test of sweetness, 10% aspartame sample; assay type: in vivo; conditions: 10% aspartame samples
# Procedure: as §3
# Samples were prepared by adding ERG to a 10% aspartame sample of aspartame (Pal Sweet Slim Up Sugar, Ajinomoto Co., Inc.) to the ERG concentrations shown in Table 16 (ERG0 to 20). Pairs combining a control 10% aspartame sample and a 10% aspartame sample containing ERG at each concentration were presented, and the panel evaluated which sample of the presented pair was perceived to be sweeter by a paired comparison test.
# [7] = Test 9 (2): paired comparison test of sweetness, 50% liquid sugar sample; assay type: in vivo; conditions: 50% liquid sugar samples
# Procedure: as §3
# Samples were prepared by adding ERG to a 50% liquid sugar sample of an isomerized sugar containing 55% or more of fructose (New Fructo 55 (NF55), Showa Sangyo Co., Ltd.) to the ERG concentrations shown in Table 13 (ERG0 to 20). Pairs combining a control 50% liquid sugar sample and a 50% liquid sugar sample containing ERG at each concentration were presented, and the panel evaluated which sample of the presented pair was perceived to be sweeter by a paired comparison test.
# [8] = assay type: in vivo; conditions: specially selected whole soybean soy sauce
# Procedure: as §1
# Soy sauces were prepared by adding ergothioneine to a commercially available specially selected whole soybean soy sauce (Kikkoman Corporation) to addition concentrations of 10 ppm, 20 ppm, and 50 ppm (EGR10, 20, 50).
# as §2
# [9] = Test 9 (7): paired comparison test of sweetness, 12.5% glycine sample; assay type: in vivo; conditions: 12.5% glycine samples
# Procedure: as §3
# Pairs combining a control 12.5% glycine sample and a 12.5% glycine sample containing ERG at each concentration were presented, and the panel evaluated which sample of the presented pair was perceived to be sweeter by a paired comparison test.
# [10] = assay type: in vivo; remark: listed apart in the source
# Text: as §1
# Pairs combining a control 50% glucose sample to which ergothioneine was not added and a 50% glucose sample containing ergothioneine at each concentration were presented to the expert panel of four, and the panel evaluated which sample of the presented pair was perceived to be sweeter by a paired comparison test.
# The same test as in the 50% glucose solution of (1) described above was conducted on a 10% glucose solution using the samples (ERG0 to 20) shown in Table 6.
# [11] = Test 1: sensory evaluation by expert panel, selection of sucrose sample of equivalent sweetness; assay type: in vivo; conditions: 2% sucrose sample containing 60 ppm ERG; all the five panelists
# Procedure: Sucrose was added to pure water to prepare sucrose samples having six concentrations of 0%, 1%, 1.5%, 2%, 2.5%, and 3%; and as a seventh sample, a sample in which purified ergothioneine (purity: 99.5% or more, Tetrahedron) was added to 2% sucrose to a final concentration of 60 ppm was prepared.
# The sweetness was evaluated by a sensory evaluation by an expert panel consisting of five trained sweetness-sensitive subjects. The panel of five experts was asked to select a sample having an equivalent sweetness from among the 1st to 6th sucrose samples (the concentration was not disclosed to the panel) regarding the sweetness of the 7th 2% sucrose sample containing 60 ppm ERG. After tasting each sample and before tasting the next sample, the mouth was completely rinsed with water at room temperature.
# [12] = assay type: in vivo; conditions: 4% sucrose
# Procedure: as §1
# Samples (ERG5 to 900) were prepared by adding ergothioneine to a 4% sucrose solution to final concentrations of 5 ppm, 20 ppm, 60 ppm, 100 ppm, 400 ppm, and 900 ppm, and a drinking test by an expert panel of four, different from those in Tests 1 and 2, was conducted on the 4% sucrose samples to which ERG was added at each concentration (the concentration was not disclosed to the panel), and sweetness was sensorially evaluated.
# Pairs combining the control 4% sucrose sample of Table 3 below and the 4% sucrose sample containing ergothioneine at each concentration were presented to the expert panel, and the panel evaluated which sample of the presented pair was perceived to be sweeter by a paired comparison test.
# [13] = sucrose solution of 0.5% or more and less than 1%
# [14] = sucrose solution of 1% or more and less than 10%
# [15] = sucrose solution of 10% or more
compound,measurement,setting,value
"C[N+](C)(C)[C@@H](Cc1c[nH]c(=S)[nH]1)C(=O)[O-] [ERG, Ergothioneine]",ERG added at which all the panelists evaluated that the sweetness was enhanced,[1],≥ 10 ppm
same,ERG added at which all evaluated that the sweetness was enhanced,[2]; [13],≥ 0.5 ppm
same,amount of ERG having a sweetness-enhancing effect relative to the sucrose content,[2]; [13],≥ 0.01 % by weight
same,ERG added at which all evaluated that the sweetness was enhanced,[2]; [14],≥ 0.25 ppm
same,amount of ERG having a sweetness-enhancing effect relative to the sucrose content,[2]; [14],≥ 0.0025 % by weight
same,ERG added at which all evaluated that the sweetness was enhanced,[2]; [15],≥ 0.1 ppm
same,amount of ERG having a sweetness-enhancing effect relative to the sucrose content,[2]; [15],≥ 0.0001 % by weight
same,ERG added at which all the panelists evaluated that the sweetness was enhanced,[3],≥ 0.5 ppm
same,ERG concentration at which the sweetness-enhancing effect became constant,[4]; 20% fructose,80 ppm
same,ERG added at which all the panelists evaluated that the sweetness was enhanced,[4]; 20% fructose samples,≥ 0.5 ppm
same,"ERG having a sweetness-enhancing effect, based on the fructose content",[4]; 20% fructose samples,≥ 0.0003 % by weight
same,fructose solution of equivalent sweetness,[5]; three of the five panelists,5.5%
same,fructose solution of equivalent sweetness,[5]; two of the five panelists,5.25%
same,ERG added at which three panelists evaluated that the sweetness was enhanced,[6],≥ 0.5 ppm
same,"ERG having a sweetness-enhancing effect, based on the aspartame content",[6],≥ 0.0005 % by weight
same,ERG added at which all the panelists evaluated that the sweetness was enhanced,[7],≥ 0.5 ppm
same,ERG added at which all the panelists evaluated that the sweetness was enhanced,[8],≥ 10 ppm
same,ERG added at which all the panelists evaluated that the sweetness was enhanced,[9],≥ 0.5 ppm
same,"ERG having a sweetness-enhancing effect, based on the glycine content",[9],≥ 0.0004 % by weight
same,ERG concentration at which the sweetness-enhancing effect became constant,[10]; 10% glucose,60 ppm
same,ERG added at which all the panelists evaluated that the sweetness was enhanced,[10]; 10% glucose solution,≥ 0.5 ppm
same,"ERG having a sweetness-enhancing effect, based on the glucose content",[10]; 10% glucose solution,≥ 0.0005 % by weight
same,sucrose solution of equivalent sweetness,[11],2.5%
same,ERG concentration at which the sweetness-enhancing effect became constant,[12],100 ppm
